Assay results from ChEMBL document CHEMBL1139192, “Novel bis(indolyl)maleimide pyridinophanes that are potent, selective inhibitors of glycogen synthase kinase-3” (Bioorg Med Chem Lett, 2007).
Calls of active or inactive are those of the source. The rule behind the calls is not given here.

Columns and labels:
[1] = biological target: T1, Dual specificity mitogen-activated protein kinase kinase 7 (Homo sapiens) (UniProt O14733); assay: Inhibition of human MKK7-beta at 1 uM relative to control; values are per cent of control
T1 sequence (whole entry): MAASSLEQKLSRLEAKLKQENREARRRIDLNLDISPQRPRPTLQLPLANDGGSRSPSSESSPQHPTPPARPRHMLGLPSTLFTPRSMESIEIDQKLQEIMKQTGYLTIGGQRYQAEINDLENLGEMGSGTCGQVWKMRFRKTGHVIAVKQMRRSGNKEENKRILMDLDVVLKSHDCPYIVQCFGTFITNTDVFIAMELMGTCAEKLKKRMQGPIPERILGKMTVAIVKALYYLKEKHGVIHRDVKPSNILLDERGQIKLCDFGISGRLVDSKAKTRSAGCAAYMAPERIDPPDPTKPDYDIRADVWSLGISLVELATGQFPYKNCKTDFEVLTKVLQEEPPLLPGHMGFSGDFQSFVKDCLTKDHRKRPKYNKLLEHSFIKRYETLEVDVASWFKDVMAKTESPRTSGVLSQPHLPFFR

[2] = biological target: T2, Calcium/calmodulin-dependent protein kinase type IV (Homo sapiens) (UniProt Q16566); assay: Residual activity of human CaMK4 at 1 uM relative to control
T2 sequence (whole entry): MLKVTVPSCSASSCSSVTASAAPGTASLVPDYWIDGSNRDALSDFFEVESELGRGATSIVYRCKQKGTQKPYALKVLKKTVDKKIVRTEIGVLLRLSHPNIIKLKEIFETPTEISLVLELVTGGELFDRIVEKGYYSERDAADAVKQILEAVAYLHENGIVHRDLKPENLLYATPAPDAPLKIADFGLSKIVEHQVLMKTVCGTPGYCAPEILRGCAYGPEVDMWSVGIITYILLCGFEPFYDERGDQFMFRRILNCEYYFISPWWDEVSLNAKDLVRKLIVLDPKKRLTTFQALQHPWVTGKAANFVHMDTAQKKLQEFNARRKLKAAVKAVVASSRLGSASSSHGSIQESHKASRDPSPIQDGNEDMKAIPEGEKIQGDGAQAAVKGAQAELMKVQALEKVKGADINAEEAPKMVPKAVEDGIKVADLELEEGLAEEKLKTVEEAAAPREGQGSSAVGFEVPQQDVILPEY

[3] = biological target: Proto-oncogene tyrosine-protein kinase Src (Homo sapiens) (UniProt P12931); assay: Residual activity of human cSRC at 1 uM relative to control
[4] = biological target: ALK tyrosine kinase receptor (Homo sapiens) (UniProt Q9UM73); assay: Inhibition of ALK at 1 uM relative to control; values are per cent of control
[5] = biological target: T3, Protein kinase C theta type (Homo sapiens, UniProt Q04759); assay: Residual activity of human PKCtheta at 1 uM relative to control
Target sequence in this assay (Q04759 whole entry, looked up): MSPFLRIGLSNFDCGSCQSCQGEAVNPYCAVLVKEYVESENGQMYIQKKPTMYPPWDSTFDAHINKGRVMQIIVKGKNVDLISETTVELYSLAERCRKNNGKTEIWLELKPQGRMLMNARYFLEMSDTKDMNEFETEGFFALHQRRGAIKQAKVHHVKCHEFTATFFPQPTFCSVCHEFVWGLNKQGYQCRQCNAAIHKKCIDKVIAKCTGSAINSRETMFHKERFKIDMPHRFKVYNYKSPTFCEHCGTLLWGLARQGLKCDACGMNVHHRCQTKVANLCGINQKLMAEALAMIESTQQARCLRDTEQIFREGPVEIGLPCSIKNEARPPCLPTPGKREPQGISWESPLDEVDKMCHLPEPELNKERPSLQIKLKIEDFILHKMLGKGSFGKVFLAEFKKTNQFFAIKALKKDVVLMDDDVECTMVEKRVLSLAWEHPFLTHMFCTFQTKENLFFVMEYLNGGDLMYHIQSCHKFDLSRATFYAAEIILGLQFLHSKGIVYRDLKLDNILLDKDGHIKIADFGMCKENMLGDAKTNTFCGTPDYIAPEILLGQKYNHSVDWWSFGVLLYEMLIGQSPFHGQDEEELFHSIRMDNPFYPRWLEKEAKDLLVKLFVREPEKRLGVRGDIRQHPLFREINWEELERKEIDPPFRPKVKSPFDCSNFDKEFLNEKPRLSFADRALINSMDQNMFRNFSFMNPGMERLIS

[6] = biological target: T4, Inhibitor of nuclear factor kappa-B kinase subunit alpha (Homo sapiens) (UniProt O15111); assay: Residual activity of human IKKalpha at 1 uM relative to control
T4 sequence (whole entry): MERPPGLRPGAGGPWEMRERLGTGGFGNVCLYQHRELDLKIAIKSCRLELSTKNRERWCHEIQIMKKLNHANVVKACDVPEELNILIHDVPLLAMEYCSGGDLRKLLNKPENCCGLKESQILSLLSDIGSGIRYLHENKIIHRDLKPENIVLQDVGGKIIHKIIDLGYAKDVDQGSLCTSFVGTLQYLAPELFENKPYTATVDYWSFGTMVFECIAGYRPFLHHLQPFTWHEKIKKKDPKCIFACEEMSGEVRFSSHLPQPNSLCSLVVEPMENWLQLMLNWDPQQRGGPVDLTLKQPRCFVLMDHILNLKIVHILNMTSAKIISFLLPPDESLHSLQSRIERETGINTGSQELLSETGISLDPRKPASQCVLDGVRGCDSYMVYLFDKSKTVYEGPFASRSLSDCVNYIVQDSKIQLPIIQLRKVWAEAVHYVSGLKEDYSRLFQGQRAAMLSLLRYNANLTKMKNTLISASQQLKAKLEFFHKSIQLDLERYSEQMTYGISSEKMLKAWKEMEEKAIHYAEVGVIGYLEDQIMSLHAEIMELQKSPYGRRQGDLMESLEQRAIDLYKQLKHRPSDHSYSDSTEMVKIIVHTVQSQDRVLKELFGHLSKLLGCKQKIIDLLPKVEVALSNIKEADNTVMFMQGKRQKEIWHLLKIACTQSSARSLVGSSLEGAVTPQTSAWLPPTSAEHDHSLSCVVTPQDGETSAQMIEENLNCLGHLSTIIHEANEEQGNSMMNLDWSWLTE

[7] = biological target: Serine/threonine-protein kinase PAK 2 (Homo sapiens) (UniProt Q13177); assay: Inhibition of human PAK2 at 1 uM relative to control; values are per cent of control
[8] = biological target: Rho-associated protein kinase 2 (Rattus norvegicus) (UniProt Q62868); assay: Residual activity of rat ROCK2 at 1 uM relative to control
[9] = biological target: Casein kinase II (Homo sapiens) (UniProt P67870+P68400+P19784); assay: Inhibition of human CK2 at 1 uM relative to control; values are per cent of control
[10] = biological target: Platelet-derived growth factor receptor beta (Homo sapiens) (UniProt P09619); assay: Inhibition of human PDGFRbeta at 1 uM relative to control; values are per cent of control
[11] = biological target: Cyclin-dependent kinase 5/CDK5 activator 1 (Homo sapiens) (UniProt Q00535+Q15078); assay: Inhibition of human CDK5/p35 at 1 uM relative to control; values are per cent of control
[12] = biological target: Protein kinase C beta type (Homo sapiens, UniProt P05771); assay: Residual activity of human PKCbeta2 at 1 uM relative to control
[13] = biological target: Tyrosine-protein kinase CSK (Homo sapiens) (UniProt P41240); assay: Inhibition of human CSK at 1 uM relative to control; values are per cent of control
Homo sapiens [14] = species on record: Homo sapiens; assay: Residual activity of human PKBgamma at 1 uM relative to control
Homo sapiens [15] = species on record: Homo sapiens; assay: Selectivity for human recombinant GSK3-beta over human recombinant PKCbeta2
[16] = biological target: T5, BDNF/NT-3 growth factors receptor (Homo sapiens, UniProt Q16620); assay: Inhibition of human TrkB at 1 uM relative to control
[17] = biological target: T5, BDNF/NT-3 growth factors receptor; assay: Inhibition of human TrkB
[18] = biological target: T3, Protein kinase C theta type; assay: Inhibition of human PKCtheta
Target sequence in this assay (Q04759 whole entry): as the sequence (Q04759 whole entry, looked up) above

[19] = biological target: Ribosomal protein S6 kinase alpha-1 (Homo sapiens, UniProt Q15418); assay: Inhibition of human Rsk1

Sequence of Serine/threonine-protein kinase PAK 2 (Homo sapiens) (Q13177 whole entry): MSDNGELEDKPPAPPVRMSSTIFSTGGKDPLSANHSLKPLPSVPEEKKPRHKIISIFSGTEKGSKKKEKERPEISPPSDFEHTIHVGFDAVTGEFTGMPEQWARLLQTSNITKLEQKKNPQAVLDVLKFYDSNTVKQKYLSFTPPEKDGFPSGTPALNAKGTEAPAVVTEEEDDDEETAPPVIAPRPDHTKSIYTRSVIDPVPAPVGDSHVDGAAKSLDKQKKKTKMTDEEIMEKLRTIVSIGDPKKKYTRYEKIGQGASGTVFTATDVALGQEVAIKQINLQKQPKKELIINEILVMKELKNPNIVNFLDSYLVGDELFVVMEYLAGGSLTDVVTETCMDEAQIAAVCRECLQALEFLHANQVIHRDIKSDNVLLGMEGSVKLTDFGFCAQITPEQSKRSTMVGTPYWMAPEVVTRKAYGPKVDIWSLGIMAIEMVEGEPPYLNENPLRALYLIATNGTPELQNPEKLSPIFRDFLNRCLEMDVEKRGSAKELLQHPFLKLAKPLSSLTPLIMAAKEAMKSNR
Sequence of Rho-associated protein kinase 2 (Rattus norvegicus) (Q62868 whole entry, looked up): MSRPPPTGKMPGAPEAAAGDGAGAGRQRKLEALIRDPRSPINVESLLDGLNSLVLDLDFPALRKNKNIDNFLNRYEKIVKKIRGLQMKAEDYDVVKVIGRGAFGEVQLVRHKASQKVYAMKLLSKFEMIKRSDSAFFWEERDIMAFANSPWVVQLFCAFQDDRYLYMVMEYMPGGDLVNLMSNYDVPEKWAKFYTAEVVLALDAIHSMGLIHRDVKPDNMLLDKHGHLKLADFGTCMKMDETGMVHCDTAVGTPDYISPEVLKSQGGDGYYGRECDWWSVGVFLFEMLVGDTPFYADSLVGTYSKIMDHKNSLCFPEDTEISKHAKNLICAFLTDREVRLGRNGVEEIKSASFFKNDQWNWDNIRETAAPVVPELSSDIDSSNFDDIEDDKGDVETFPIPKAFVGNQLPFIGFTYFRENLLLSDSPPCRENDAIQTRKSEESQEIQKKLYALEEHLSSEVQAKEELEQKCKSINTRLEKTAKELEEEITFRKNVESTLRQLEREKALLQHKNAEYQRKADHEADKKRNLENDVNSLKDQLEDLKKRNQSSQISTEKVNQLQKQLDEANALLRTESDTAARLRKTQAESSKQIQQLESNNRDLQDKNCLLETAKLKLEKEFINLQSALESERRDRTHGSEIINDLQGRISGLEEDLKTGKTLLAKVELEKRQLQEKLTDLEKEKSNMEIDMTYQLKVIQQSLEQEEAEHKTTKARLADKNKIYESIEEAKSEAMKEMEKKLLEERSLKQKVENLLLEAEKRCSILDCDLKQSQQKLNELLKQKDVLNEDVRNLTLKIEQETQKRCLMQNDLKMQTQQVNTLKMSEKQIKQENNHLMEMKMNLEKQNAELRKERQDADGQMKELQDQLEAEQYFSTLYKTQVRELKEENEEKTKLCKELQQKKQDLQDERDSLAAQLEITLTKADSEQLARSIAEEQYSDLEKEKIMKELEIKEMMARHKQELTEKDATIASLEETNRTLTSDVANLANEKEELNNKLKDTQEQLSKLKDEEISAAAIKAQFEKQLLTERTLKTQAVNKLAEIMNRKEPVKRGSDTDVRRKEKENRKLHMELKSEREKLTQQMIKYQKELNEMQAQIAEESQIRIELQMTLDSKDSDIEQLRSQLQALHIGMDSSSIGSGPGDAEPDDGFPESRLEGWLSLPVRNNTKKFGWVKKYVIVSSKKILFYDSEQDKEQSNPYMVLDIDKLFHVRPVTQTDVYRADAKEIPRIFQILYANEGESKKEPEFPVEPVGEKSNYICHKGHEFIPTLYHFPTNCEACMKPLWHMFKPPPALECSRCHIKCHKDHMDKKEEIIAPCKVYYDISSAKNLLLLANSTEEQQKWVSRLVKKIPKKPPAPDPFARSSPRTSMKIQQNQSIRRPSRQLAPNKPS
Sequence of Tyrosine-protein kinase CSK (Homo sapiens) (P41240 2-450 limits assumed): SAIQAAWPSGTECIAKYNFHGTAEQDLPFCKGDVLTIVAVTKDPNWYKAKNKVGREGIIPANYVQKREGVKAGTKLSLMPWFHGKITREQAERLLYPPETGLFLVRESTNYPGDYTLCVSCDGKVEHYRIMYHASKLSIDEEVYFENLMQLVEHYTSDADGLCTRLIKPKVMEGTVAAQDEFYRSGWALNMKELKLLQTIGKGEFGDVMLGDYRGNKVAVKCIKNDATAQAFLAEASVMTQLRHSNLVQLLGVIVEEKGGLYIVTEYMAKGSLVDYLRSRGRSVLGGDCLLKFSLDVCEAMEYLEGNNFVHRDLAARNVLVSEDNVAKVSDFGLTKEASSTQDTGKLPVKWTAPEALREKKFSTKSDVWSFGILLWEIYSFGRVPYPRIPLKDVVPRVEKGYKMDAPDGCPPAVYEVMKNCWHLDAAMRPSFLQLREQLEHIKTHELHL
Sequence of Platelet-derived growth factor receptor beta (Homo sapiens) (P09619 whole entry): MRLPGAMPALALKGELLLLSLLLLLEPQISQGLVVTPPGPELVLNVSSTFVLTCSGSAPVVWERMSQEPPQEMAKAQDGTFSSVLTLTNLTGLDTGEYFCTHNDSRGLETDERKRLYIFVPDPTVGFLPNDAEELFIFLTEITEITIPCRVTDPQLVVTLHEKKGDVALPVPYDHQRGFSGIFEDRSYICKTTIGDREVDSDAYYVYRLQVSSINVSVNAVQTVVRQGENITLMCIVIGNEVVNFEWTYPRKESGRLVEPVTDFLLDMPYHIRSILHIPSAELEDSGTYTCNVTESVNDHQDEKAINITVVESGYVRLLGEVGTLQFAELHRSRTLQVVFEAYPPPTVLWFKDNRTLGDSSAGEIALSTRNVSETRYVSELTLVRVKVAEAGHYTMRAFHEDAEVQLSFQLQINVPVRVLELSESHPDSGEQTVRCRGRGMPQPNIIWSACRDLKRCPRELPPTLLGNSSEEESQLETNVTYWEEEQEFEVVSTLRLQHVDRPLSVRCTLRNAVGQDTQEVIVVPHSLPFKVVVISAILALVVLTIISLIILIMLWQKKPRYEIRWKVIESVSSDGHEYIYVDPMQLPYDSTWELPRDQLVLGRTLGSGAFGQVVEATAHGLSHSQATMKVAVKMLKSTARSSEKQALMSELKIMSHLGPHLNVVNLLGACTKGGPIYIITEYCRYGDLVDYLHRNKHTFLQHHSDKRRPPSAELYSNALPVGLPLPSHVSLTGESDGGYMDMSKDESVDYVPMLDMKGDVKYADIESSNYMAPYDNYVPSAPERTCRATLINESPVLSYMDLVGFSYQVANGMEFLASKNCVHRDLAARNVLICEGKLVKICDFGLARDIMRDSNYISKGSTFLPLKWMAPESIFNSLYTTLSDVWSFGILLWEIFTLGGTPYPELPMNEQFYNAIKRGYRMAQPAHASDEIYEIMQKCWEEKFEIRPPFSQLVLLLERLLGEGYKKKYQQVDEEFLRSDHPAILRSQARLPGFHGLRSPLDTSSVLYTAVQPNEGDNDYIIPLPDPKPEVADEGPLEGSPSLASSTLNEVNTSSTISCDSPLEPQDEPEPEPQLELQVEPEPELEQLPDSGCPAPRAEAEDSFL
Sequence of Cyclin-dependent kinase 5/CDK5 activator 1 (Homo sapiens) (Q00535 whole entry): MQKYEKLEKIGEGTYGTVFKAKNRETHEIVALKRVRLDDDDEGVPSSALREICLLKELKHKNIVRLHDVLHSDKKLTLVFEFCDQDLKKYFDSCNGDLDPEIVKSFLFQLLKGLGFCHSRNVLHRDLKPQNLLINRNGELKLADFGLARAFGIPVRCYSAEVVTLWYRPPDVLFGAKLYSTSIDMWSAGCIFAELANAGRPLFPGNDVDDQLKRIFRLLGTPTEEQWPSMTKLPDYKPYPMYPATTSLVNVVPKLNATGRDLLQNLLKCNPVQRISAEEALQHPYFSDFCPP
Sequence of Cyclin-dependent kinase 5/CDK5 activator 1 (Homo sapiens) (Q15078 99-307 partner limits assumed): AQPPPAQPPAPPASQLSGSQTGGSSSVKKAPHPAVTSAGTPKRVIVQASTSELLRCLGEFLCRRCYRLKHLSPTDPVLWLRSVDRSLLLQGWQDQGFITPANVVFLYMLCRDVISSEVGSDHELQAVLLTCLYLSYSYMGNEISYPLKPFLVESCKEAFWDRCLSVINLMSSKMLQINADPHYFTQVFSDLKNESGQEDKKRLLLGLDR

residual activity [1] | residual activity [2] | residual activity [3] | residual activity [4] | residual activity [5] | residual activity [6] | residual activity [7] | residual activity [8] | residual activity [9] | residual activity [10] | residual activity [11] | residual activity [12] | residual activity [13] | residual activity (Homo sapiens [14]) | Ratio IC50 (Homo sapiens [15]) | Activity [16] | IC50 [17] | IC50 [18] | IC50 [19] | SMILES
85% | 99% | 113% | 74% | 33% | 121% | 102% | 91% | 113% | 105% | 104% | 77% | 129% | 105% | – | – | – | – | – | O=C1NC(=O)C2=C1c1cn(c3ccccc13)CCCc1ccc(c(N3CCCC3)n1)CCCn1cc2c2ccccc21
78% | 113% | 105% | 55% | 27% | 133% | 103% | 92% | 111% | 101% | 105% | 68% | 133% | 106% | – | – | – | – | – | CN(C)c1cc2cc(n1)CCCn1cc(c3ccccc31)C1=C(C(=O)NC1=O)c1cn(c3ccccc13)CCC2
97% | 112% | 97% | 58% | 29% | 132% | 100% | 83% | 108% | 103% | 99% | 74% | 125% | 103% | – | – | – | – | – | O=C1NC(=O)C2=C1c1cn(c3ccccc13)CCCc1cc(nc(N3CCCC3)c1)CCCn1cc2c2ccccc21
88% | 92% | 81% | 103% | 21% | 92% | 93% | 101% | 107% | 147% | 99% | 64% | 95% | 93% | 460 | inactive | > 3 µM | 0.098 µM | 1.9 µM | CN(C)c1nc2ccc1CCCn1cc(c3ccccc31)C1=C(C(=O)NC1=O)c1cn(c3ccccc13)CC2
